{"source": "patent US20080299638A1", "about": "(priority 2004, published 2008)", "key": {"HBeAg": {"tested_on": "HBeAg", "assay": "Suppression of HBeAg secretion in 2.2.15 cells (radioimmunoassay, cpm)", "type": "cell-based, hepatitis B virus", "method": "(§1) Grow 200000 cells/ml 2.2.15 cell on 24-well plate, 1 ml per well, incubate for 24 hours under 5% CO2 at 37° C. […] 4 wells per concentration, incubate under 5% CO2 at 37° C., change drug solution every 4 days with the same concentration, retrieve culture medium at day 8, preserve at −20° C. Repeat experiment for 2 batches, test for HBsAg and HBeAg separately. Check cpm value for each wells using γ-counter.\n(§2) Calculating drug effectiveness: calculate the mean and standard deviation of cpm from the cell control group and groups with different drug concentration, P/N value and percent suppression, IC50 and SI. • (1)\n(§3) [formula] • (2) Calculate IC50 for drug suppression of antigen:\n(§4) [formula] • (4) Calculate the cpm differences between HBsAg and HBeAg in different dilutions and control groups by t-test."}, "[1]": {"tested_on": "HBV-DNA in supernatant of 2.2.15 cell culture", "assay": "HBV-DNA dot blot in supernatant of 2.2.15 cell culture", "type": "cell-based, hepatitis B virus", "details": "day 8; for HBV-DNA in cell culture supernatant, CPM: control 3808.34", "method": "Extraction of HBV-DNA from 2.2.15 cells supernatant: Grow 200000 cells/ml 2.2.15 cell on 24-well plate, 1 ml per well, add drugs after 24 hours incubation, change drug solution every 4 days with the same concentration, collect supernatant from cell culture after 8 days of incubation counted from the day drugs added into the culture, precipitate with polyethylene glycol, digest with proteinase K, extract with phenol:chloroform:isopentanol, nucleic acid precipitation by absolute ethanol and so on procedures, vacuum dry, re-dissolve in TE buffer as sample.\nDot blot: place dots: take 20 μl sample (contains 25 μg DNA), denature, neutralize, serial dilute 20×SSC buffer to 1:8 dilution on nitrocellulose membrane, oven dry, pre-hybridize, hybridize, wash membrane, radioactive self exposure and so on procedures. Develop X ray film with conventional method. Scan developed film with scanner, measure density with gel-pro software, calculate suppression rate and IC50."}, "2.2.15 cells": {"tested_on": "2.2.15 cells", "assay": "Arginase toxicity to cells (CPE method, Reed-Muench)", "type": "cell-based, human", "details": "8 days drug addition", "method": "Divide experiment into control group and test groups with different drug concentration. Digest cells, dilute to 200,000 cells/ml, transfer to culture plate, 100 μl per well for 96-well plate, incubate for 24 hours under 5% CO2 at 37° C., ready for experiment when cells grown into monolayer. […] Observe cytopathological changes, 8 days or 4 days under microscope, totally destroyed is 4; 75% destroyed is 3; 50% destroyed is 2, 25% destroyed is 1; no changes is 0. Calculate TC50 and TC0 according to Reed-Muench Method:\nA=log>50% drug concentration; B=log<50% drug concentration; C=log times of dilution\nStarting from 40 IU/ml and subsequently 20, 10, 5, 2.5 IU/ml, change drug solution every 4 days until 8 days, observe cytopathological changes under microscope, and check for CPE with microscope."}, "HBsAg": {"tested_on": "HBsAg", "assay": "Suppression of HBsAg secretion in 2.2.15 cells (radioimmunoassay, cpm)", "type": "cell-based, hepatitis B virus", "method": "as §1, §2, §3, §4"}, "[2]": {"details": "Lamivudine 50 μg/ml, batch 1, day 8"}, "[3]": {"details": "Lamivudine 50 μg/ml, batch 2, day 8"}, "[4]": {"details": "Lamivudine 50 μg/ml, two batches average, day 8"}, "[5]": {"details": "Lamivudine 50 μg/ml, two batches average, day 8, listed as lamivudine"}, "[6]": {"details": "Lamivudine 100 μg/ml, batch 1, day 8"}, "[7]": {"details": "Lamivudine 100 μg/ml, batch 2, day 8"}, "[8]": {"details": "Lamivudine 100 μg/ml, two batches average, day 8"}, "[9]": {"details": "Lamivudine 100 μg/ml, two batches average, day 8, listed as lamivudine"}, "[10]": {"details": "Lamivudine 200 μg/ml, batch 1, day 8"}, "[11]": {"details": "Lamivudine 200 μg/ml, batch 2, day 8"}, "[12]": {"details": "Lamivudine 200 μg/ml, two batches average, day 8"}, "[13]": {"details": "Lamivudine 200 μg/ml, two batches average, day 8, listed as lamivudine"}, "[14]": {"details": "Lamivudine 400 μg/ml, batch 1, day 8"}, "[15]": {"details": "Lamivudine 400 μg/ml, batch 2, day 8"}, "[16]": {"details": "Lamivudine 400 μg/ml, two batches average, day 8"}, "[17]": {"details": "Lamivudine 400 μg/ml, two batches average, day 8, listed as lamivudine"}, "[18]": {"details": "Lamivudine 800 μg/ml, batch 1, day 8"}, "[19]": {"details": "Lamivudine 800 μg/ml, batch 2, day 8"}, "[20]": {"details": "Lamivudine 800 μg/ml, two batches average, day 8"}, "[21]": {"details": "Lamivudine 800 μg/ml, two batches average, day 8, listed as lamivudine"}}, "note": "“And” between values parts separate entries of the source, which are not always exact repeats. Identical values can stand only once.", "data": [{"smiles": "Nc1ccn([C@@H]2CS[C@H](CO)O2)c(=O)n1", "note": "[Lamivudine, lamivudine, reference compound]", "values": [{"measurement": "IC50", "setting": "HBeAg; Hepatitis B virus, 192 h, read-out: HBeAg IC50", "result": "> 800", "unit": "µg/mL"}, {"measurement": "HBeAg (CPM) % suppression", "setting": "HBeAg; [2]", "result": 13.20, "unit": "%"}, {"measurement": "HBeAg (CPM) % suppression", "setting": "HBeAg; [3]", "result": 14.99, "unit": "%"}, {"measurement": "HBeAg (CPM) % suppression", "setting": "HBeAg; [4]", "result": "14.10 ± 1.27", "unit": "%"}, {"measurement": "HBeAg (CPM) % suppression", "setting": "HBeAg; [5]", "result": "14.10±1.27", "unit": "%"}, {"measurement": "HBeAg (CPM) % suppression", "setting": "HBeAg; [6]", "result": 17.48, "unit": "%"}, {"measurement": "HBeAg (CPM) % suppression", "setting": "HBeAg; [7]", "result": 14.19, "unit": "%"}, {"measurement": "HBeAg (CPM) % suppression", "setting": "HBeAg; [8]", "result": "15.84 ± 2.33", "unit": "%"}, {"measurement": "HBeAg (CPM) % suppression", "setting": "HBeAg; [9]", "result": "15.84±2.33", "unit": "%"}, {"measurement": "HBeAg (CPM) % suppression", "setting": "HBeAg; [10]", "result": 16.35, "unit": "%"}, {"measurement": "HBeAg (CPM) % suppression", "setting": "HBeAg; [11]", "result": 19.31, "unit": "%"}, {"measurement": "HBeAg (CPM) % suppression", "setting": "HBeAg; [12]", "result": "17.83 ± 2.09", "unit": "%"}, {"measurement": "HBeAg (CPM) % suppression", "setting": "HBeAg; [13]", "result": "17.83±2.09", "unit": "%"}, {"measurement": "HBeAg (CPM) % suppression", "setting": "HBeAg; [14]", "result": 12.67, "unit": "%"}, {"measurement": "HBeAg (CPM) % suppression", "setting": "HBeAg; [15]", "result": 13.32, "unit": "%"}, {"measurement": "HBeAg (CPM) % suppression", "setting": "HBeAg; [16]", "result": "12.99 ± 0.46", "unit": "%"}, {"measurement": "HBeAg (CPM) % suppression", "setting": "HBeAg; [17]", "result": "12.99±0.46", "unit": "%"}, {"measurement": "HBeAg (CPM) % suppression", "setting": "HBeAg; [18]", "result": 6.10, "unit": "%"}, {"measurement": "HBeAg (CPM) % suppression", "setting": "HBeAg; [19]", "result": 10.37, "unit": "%"}, {"measurement": "HBeAg (CPM) % suppression", "setting": "HBeAg; [20]", "result": "8.23 ± 3.02", "unit": "%"}, {"measurement": "HBeAg (CPM) % suppression", "setting": "HBeAg; [21]", "result": "8.23±3.02", "unit": "%"}, {"measurement": "HBeAg IC50", "setting": "HBeAg; batch 1, day 8", "result": ">800", "unit": "µg/mL"}, {"measurement": "HBeAg IC50", "setting": "HBeAg; two batches average, day 8", "result": ">800 ± 0 TC0 800 μg/ml and >800 μg/ml"}, {"measurement": "IC50", "setting": "[1]; Hepatitis B virus, 192 h, first batch experiment", "result": 114, "unit": "µg/mL"}, {"measurement": "% suppression of HBV-DNA in cell culture supernatant", "setting": "[1]; Lamivudine 50 μg/ml", "result": 25.6576, "unit": "%"}, {"measurement": "HBV-DNA in cell culture supernatant, CPM", "setting": "[1]; Lamivudine 50 μg/ml", "result": 2831.21, "unit": "CPM"}, {"measurement": "% suppression of HBV-DNA in cell culture supernatant", "setting": "[1]; Lamivudine 100 μg/ml", "result": 61.5237, "unit": "%"}, {"measurement": "HBV-DNA in cell culture supernatant, CPM", "setting": "[1]; Lamivudine 100 μg/ml", "result": 1465.31, "unit": "CPM"}, {"measurement": "% suppression of HBV-DNA in cell culture supernatant", "setting": "[1]; Lamivudine 200 μg/ml", "result": 71.6404, "unit": "%"}, {"measurement": "HBV-DNA in cell culture supernatant, CPM", "setting": "[1]; Lamivudine 200 μg/ml", "result": 1080.03, "unit": "CPM"}, {"measurement": "% suppression of HBV-DNA in cell culture supernatant", "setting": "[1]; Lamivudine 400 μg/ml", "result": 79.1083, "unit": "%"}, {"measurement": "HBV-DNA in cell culture supernatant, CPM", "setting": "[1]; Lamivudine 400 μg/ml", "result": 795.628, "unit": "CPM"}, {"measurement": "% suppression of HBV-DNA in cell culture supernatant", "setting": "[1]; Lamivudine 800 μg/ml", "result": 82.5905, "unit": "%"}, {"measurement": "HBV-DNA in cell culture supernatant, CPM", "setting": "[1]; Lamivudine 800 μg/ml", "result": 663.013, "unit": "CPM"}, {"measurement": "TC0", "setting": "2.2.15 cells", "result": "800 ± 0", "unit": "µg/mL"}, {"measurement": "TC50", "setting": "2.2.15 cells", "result": 1198.97, "unit": "µg/mL"}, {"measurement": "TC0", "setting": "2.2.15 cells; listed as lamivudine", "result": "800 ± 0", "unit": "µg/mL"}, {"measurement": "TC50", "setting": "2.2.15 cells; listed as lamivudine", "result": "1198.97 ± 97.50 µg/mL and 1198.97 µg/mL"}, {"measurement": "IC50", "setting": "HBsAg; Hepatitis B virus, 192 h, read-out: HBsAg IC50", "result": "> 800", "unit": "µg/mL"}, {"measurement": "HBsAg (CPM) % suppression", "setting": "HBsAg; [2]", "result": 6.24, "unit": "%"}, {"measurement": "HBsAg (CPM) % suppression", "setting": "HBsAg; [3]", "result": 0.65, "unit": "%"}, {"measurement": "HBsAg (CPM) % suppression", "setting": "HBsAg; [4]", "result": "3.45 ± 3.95", "unit": "%"}, {"measurement": "HBsAg (CPM) % suppression", "setting": "HBsAg; [5]", "result": "3.45±3.95", "unit": "%"}, {"measurement": "HBsAg (CPM) % suppression", "setting": "HBsAg; [6]", "result": 12.05, "unit": "%"}, {"measurement": "HBsAg (CPM) % suppression", "setting": "HBsAg; [7]", "result": 5.15, "unit": "%"}, {"measurement": "HBsAg (CPM) % suppression", "setting": "HBsAg; [8]", "result": "8.6 ± 4.88", "unit": "%"}, {"measurement": "HBsAg (CPM) % suppression", "setting": "HBsAg; [9]", "result": "8.60±4.88", "unit": "%"}, {"measurement": "HBsAg (CPM) % suppression", "setting": "HBsAg; [10]", "result": 2.35, "unit": "%"}, {"measurement": "HBsAg (CPM) % suppression", "setting": "HBsAg; [11]", "result": 8.99, "unit": "%"}, {"measurement": "HBsAg (CPM) % suppression", "setting": "HBsAg; [12]", "result": "5.67 ± 4.7", "unit": "%"}, {"measurement": "HBsAg (CPM) % suppression", "setting": "HBsAg; [13]", "result": "5.67±4.70", "unit": "%"}, {"measurement": "HBsAg (CPM) % suppression", "setting": "HBsAg; [14]", "result": 8.10, "unit": "%"}, {"measurement": "HBsAg (CPM) % suppression", "setting": "HBsAg; [15]", "result": 0, "unit": "%"}, {"measurement": "HBsAg (CPM) % suppression", "setting": "HBsAg; [16]", "result": "4.05 ± 5.73", "unit": "%"}, {"measurement": "HBsAg (CPM) % suppression", "setting": "HBsAg; [17]", "result": "4.05±5.73", "unit": "%"}, {"measurement": "HBsAg (CPM) % suppression", "setting": "HBsAg; [18]", "result": 0, "unit": "%"}, {"measurement": "HBsAg (CPM) % suppression", "setting": "HBsAg; [19]", "result": 9.299, "unit": "%"}, {"measurement": "HBsAg (CPM) % suppression", "setting": "HBsAg; [20]", "result": "4.65 ± 6.58", "unit": "%"}, {"measurement": "HBsAg (CPM) % suppression", "setting": "HBsAg; [21]", "result": "4.65±6.58", "unit": "%"}, {"measurement": "HBsAg IC50", "setting": "HBsAg; batch 1, day 8", "result": ">800", "unit": "µg/mL"}, {"measurement": "HBsAg IC50", "setting": "HBsAg; two batches average, day 8", "result": ">800 ± 0 TC0 μg/ml and >800 μg/ml"}]}]}
